Test results reported in ChEMBL document CHEMBL5046301, “pH-Responsive Antimicrobial Peptide with Selective Killing Activity for Bacterial Abscess Therapy” (J Med Chem, 2022).

Columns and labels:
Escherichia coli [1] = test: Antibacterial activity against Escherichia coli ATCC 25922 assessed as inhibition of bacterial growth at pH 7.4 incubated for 24 hrs by NCCLS protocol based method; format: functional
[2] = Cytotoxicity against mouse RAW264.7 cells assessed as inhibition of cell growth at pH 6.5 measured after 24 hrs by MTT assay; format: toxicity, cell-based
Staphylococcus aureus [3] = test: Antibacterial activity against Staphylococcus aureus ATCC 29213 assessed as inhibition of bacterial growth at pH 6.5 incubated for 24 hrs by NCCLS protocol based method; format: functional
Staphylococcus aureus [4] = test: Antibacterial activity against methicillin-resistant Staphylococcus aureus ATCC 43300 assessed as inhibition of bacterial growth at pH 6.5 incubated for 24 hrs by NCCLS protocol based method; format: functional
Salmonella typhimurium [5] = test: Antibacterial activity against Salmonella enterica subsp. enterica serovar Typhimurium C77-31 assessed as inhibition of bacterial growth at pH 6.5 incubated for 24 hrs by NCCLS protocol based method; format: functional
Staphylococcus aureus [6] = test: Antibacterial activity against Staphylococcus aureus ATCC 25923 assessed as inhibition of bacterial growth at pH 7.4 incubated for 24 hrs by NCCLS protocol based method; format: functional
[7] = tested on: Staphylococcus epidermidis; test: Antibacterial activity against Staphylococcus epidermidis ATCC 12228 assessed as inhibition of bacterial growth at pH 6.5 incubated for 24 hrs by NCCLS protocol based method; format: functional
Staphylococcus aureus [8] = test: Antibacterial activity against methicillin-resistant Staphylococcus aureus ATCC 43300 assessed as inhibition of bacterial growth at pH 7.4 incubated for 24 hrs by NCCLS protocol based method; format: functional
[9] = Hemolytic activity in human RBC assessed as hemoglobin release at pH 7.4 incubated for 1 hr; format: toxicity, cell-based; conditions: erythrocyte, pH 7.4, 1 h
Staphylococcus aureus [10] = test: Antibacterial activity against Staphylococcus aureus ATCC 29213 assessed as inhibition of bacterial growth at pH 7.4 incubated for 24 hrs by NCCLS protocol based method; format: functional
Salmonella typhimurium [11] = test: Antibacterial activity against Salmonella typhimurium ATCC 14028 assessed as inhibition of bacterial growth at pH 6.5 incubated for 24 hrs by NCCLS protocol based method; format: functional, Salmonella enterica subsp. enterica serovar Typhimurium; conditions: Salmonella enterica
Staphylococcus aureus [12] = test: Antibacterial activity against Staphylococcus aureus ATCC 25923 assessed as inhibition of bacterial growth at pH 6.5 incubated for 24 hrs by NCCLS protocol based method; format: functional
Escherichia coli [13] = test: Antibacterial activity against Escherichia coli ATCC 25922 assessed as inhibition of bacterial growth at pH 6.5 incubated for 24 hrs by NCCLS protocol based method; format: functional
[14] = Cytotoxicity against mouse RAW264.7 cells assessed as inhibition of cell growth at pH 7.4 measured after 24 hrs by MTT assay; format: toxicity, cell-based
[15] = Hemolytic activity against human RBC assessed as hemoglobin release at pH 6.5 incubated for 1 hrs; format: toxicity, cell-based; conditions: erythrocyte, pH 6.5, 1 h
Pseudomonas aeruginosa [16] = test: Antibacterial activity against Pseudomonas aeruginosa ATCC 27853 assessed as inhibition of bacterial growth at pH 7.4 incubated for 24 hrs by NCCLS protocol based method; format: functional
Salmonella typhimurium [17] = test: Antibacterial activity against Salmonella enterica subsp. enterica serovar Typhimurium C77-31 assessed as inhibition of bacterial growth at pH 7.4 incubated for 24 hrs by NCCLS protocol based method; format: functional
Pseudomonas aeruginosa [18] = test: Antibacterial activity against Pseudomonas aeruginosa ATCC 27853 assessed as inhibition of bacterial growth at pH 6.5 incubated for 24 hrs by NCCLS protocol based method; format: functional
[19] = tested on: Staphylococcus epidermidis; test: Antibacterial activity against Staphylococcus epidermidis ATCC 12228 assessed as inhibition of bacterial growth at pH 7.4 incubated for 24 hrs by NCCLS protocol based method; format: functional
Salmonella typhimurium [20] = test: Antibacterial activity against Salmonella typhimurium ATCC 14028 assessed as inhibition of bacterial growth at pH 7.4 incubated for 24 hrs by NCCLS protocol based method; format: functional, Salmonella enterica subsp. enterica serovar Typhimurium; conditions: Salmonella enterica
[21] = Ratio of MHC for hemolytic activity against human RBC assessed as hemoglobin release at pH 6.5 to MHC for hemolytic activity against human RBC assessed as hemoglobin release at pH 7.4; format: toxicity, cell-based, Erythrocyte; conditions: human red blood cells (RBC)

| Substance | MIC (Escherichia coli [1]) [µM] | IC50 at 24 h [2] [µM] | MIC (Staphylococcus aureus [3]) [µM] | MIC (Staphylococcus aureus [4]) [µM] | MIC (Salmonella typhimurium [5]) [µM] | MIC (Staphylococcus aureus [6]) [µM] | MIC [7] [µM] | MIC (Staphylococcus aureus [8]) [µM] | MHC10 [9] [µM] | MIC (Staphylococcus aureus [10]) [µM] | MIC (Salmonella typhimurium [11]) [µM] | MIC (Staphylococcus aureus [12]) [µM] | MIC (Escherichia coli [13]) [µM] | IC50 at 24 h [14] [µM] | MHC10 [15] [µM] | MIC (Pseudomonas aeruginosa [16]) [µM] | MIC (Salmonella typhimurium [17]) [µM] | MIC (Pseudomonas aeruginosa [18]) [µM] | MIC [19] [µM] | MIC (Salmonella typhimurium [20]) [µM] | also measured |
| --- | --- | --- | --- | --- | --- | --- | --- | --- | --- | --- | --- | --- | --- | --- | --- | --- | --- | --- | --- | --- | --- |
| H-DLDHLIPHVIHGLVHAIHH-NH2 | > 64 | > 128 | > 64 | > 64 | > 64 | > 64 | > 64 | > 64 | > 128 | > 64 | > 64 | > 64 | 32 | > 128 | > 128 | > 64 | > 64 | > 64 | > 64 | > 64 |  |
| H-ELEHLIPHVIHGLVHAIHH-NH2 | > 64 | > 128 | > 64 | > 64 | > 64 | > 64 | > 64 | > 64 | > 128 | > 64 | > 64 | > 64 | 32 | > 128 | > 128 | > 64 | > 64 | > 64 | > 64 | > 64 |  |
| H-FLDHLIPHVIHGLVHAIHH-NH2 | > 64 | 67.9 | > 64 | > 64 | 16 | > 64 | > 64 | > 64 | > 128 | > 64 | 16 | > 64 | 4 | 67.9 | > 128 | > 64 | > 64 | 8 | > 64 | > 64 |  |
| H-FLFHLIPHVIHGLVHAIHH-NH2 | 4 | 4.79 | 4 | 2 | 8 | 4 | 2 | 4 | 16 | 4 | 16 | 2 | 2 | 12.3 | 8 | 64 | 64 | 2 | 4 | 64 | selectivity ratio [21]: 0.5 |
| H-FLFHLIPHVIHGLVKAIRK-NH2 | 2 | 3.15 | 1 | 1 | 2 | 2 | 1 | 2 | 16 | 2 | 4 | 1 | 1 | 4.41 | 4 | 4 | 4 | 1 | 1 | 8 | selectivity ratio [21]: 0.25 |
| H-FLFKLIPKVIKGLVHAIHH-NH2 | 4 | 2.96 | 2 | 2 | 4 | 2 | 2 | 2 | 64 | 2 | 4 | 2 | 4 | 4.37 | 32 | 8 | 8 | 4 | 2 | 8 | selectivity ratio [21]: 0.5 |
| H-HLDHLIPHVIHGLVHAIHH-NH2 | > 64 | > 128 | > 64 | > 64 | 64 | > 64 | > 64 | > 64 | > 128 | > 64 | 64 | > 64 | 8 | > 128 | > 128 | > 64 | > 64 | 32 | > 64 | > 64 |  |
| H-HLEHLIPHVIHGLVHAIHH-NH2 | > 64 | > 128 | > 64 | > 64 | > 64 | > 64 | > 64 | > 64 | > 128 | > 64 | 64 | > 64 | 4 | > 128 | > 128 | > 64 | > 64 | 32 | > 64 | > 64 |  |
| H-HLHHLIPHVIHGLVHAIHH-NH2 | 16 | 58.3 | > 64 | > 64 | 2 | 32 | > 64 | 16 | > 128 | > 64 | 8 | > 64 | 2 | 66 | > 128 | > 64 | 64 | 8 | 32 | 64 |  |
